This passage reports Ki, EC50 and Emax results from ChEMBL document CHEMBL3352005, “Synthesis of a novel universal opioid receptor agonist with the 1,3,5-trioxazatriquinane skeleton and its pharmacologies” (Bioorg Med Chem Lett, 2014).

The pKi is −log10 of the Ki, conventionally taken in molar units. Usually pEC50 stands for the negative decadic logarithm of the EC50, by convention in mol/L. What is called Emax is the size of the effect at its maximum, as opposed to the concentration needed.

pEC50, pKi: −log10 of the molar value.

Assay [1] addresses Mu-type opioid receptor (Mus musculus, UniProt P42866). As to the kind of experiment: Displacement of [3H]DAMGO from mouse whole brain MOR. A general note: Displacement assays read how much labelled ligand stays bound in the presence of the test substance.
Assay [2] concerns the target Delta-type opioid receptor (Mus musculus, UniProt P32300). As to the kind of experiment: Displacement of [3H]DPDPE from mouse whole brain DOR.
Assay [3] deals with Kappa-type opioid receptor (Cavia porcellus, UniProt P41144). As to the kind of experiment: Displacement of [3H]U-69593 from guinea pig cerebellum KOR.
Kappa-type opioid receptor (Cavia porcellus, UniProt P41144), sequence (P41144 whole entry): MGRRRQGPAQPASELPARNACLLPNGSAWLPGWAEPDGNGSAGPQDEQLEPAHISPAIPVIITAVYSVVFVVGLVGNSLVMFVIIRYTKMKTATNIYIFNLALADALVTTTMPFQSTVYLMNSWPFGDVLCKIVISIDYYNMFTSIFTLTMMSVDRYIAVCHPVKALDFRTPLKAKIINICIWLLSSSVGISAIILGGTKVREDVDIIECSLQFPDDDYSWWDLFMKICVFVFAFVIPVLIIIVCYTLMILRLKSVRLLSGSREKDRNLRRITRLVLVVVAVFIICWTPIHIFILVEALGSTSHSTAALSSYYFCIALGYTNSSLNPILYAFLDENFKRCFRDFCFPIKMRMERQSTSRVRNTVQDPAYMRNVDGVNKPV
In assay [4] the target is T1, Delta-type opioid receptor (Homo sapiens, UniProt P41143). As to the kind of experiment: Agonist activity at human DOR expressed in CHO cells by [35S]GTPgammaS binding assay. Type of assay: functional, cell-based. A general note: GTPγS is a poorly hydrolysed GTP analogue; its binding reports G protein activation.
T1 sequence (P41143 whole entry): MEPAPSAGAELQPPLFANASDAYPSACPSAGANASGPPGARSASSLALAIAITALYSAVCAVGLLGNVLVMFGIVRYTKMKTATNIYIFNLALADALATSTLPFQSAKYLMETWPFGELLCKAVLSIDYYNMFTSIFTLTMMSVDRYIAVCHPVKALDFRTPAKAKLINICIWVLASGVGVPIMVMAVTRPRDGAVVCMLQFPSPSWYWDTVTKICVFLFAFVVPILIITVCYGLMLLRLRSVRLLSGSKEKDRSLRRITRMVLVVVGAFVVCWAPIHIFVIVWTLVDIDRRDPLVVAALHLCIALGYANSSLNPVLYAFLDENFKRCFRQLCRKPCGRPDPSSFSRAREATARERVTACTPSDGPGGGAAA
Assay [5] concerns the target T1, Delta-type opioid receptor. As to the kind of experiment: Agonist activity at human DOR expressed in CHO cells by [35S]GTPgammaS binding assay relative to DPDPE. The class given is functional, cell-based.
Assay [6] has as its target T2, Mu-type opioid receptor (Homo sapiens, UniProt P35372). As to the kind of experiment: Agonist activity at human MOR expressed in CHO cells by [35S]GTPgammaS binding assay relative to DAMGO. Type of assay: functional, cell-based.
The target in assay [7] is T2, Mu-type opioid receptor. As to the kind of experiment: Agonist activity at human MOR expressed in CHO cells by [35S]GTPgammaS binding assay. Type of assay: functional, cell-based.
Assay [8] addresses T3, Kappa-type opioid receptor (Homo sapiens, UniProt P41145). As to the kind of experiment: Agonist activity at human KOR expressed in CHO cells by [35S]GTPgammaS binding assay relative to U-69593. Type of assay: functional, cell-based.
Assay [9] deals with T3, Kappa-type opioid receptor. As to the kind of experiment: Agonist activity at human KOR expressed in CHO cells by [35S]GTPgammaS binding assay. Type of assay: functional, cell-based.

Delta-type opioid receptor (Mus musculus, UniProt P32300), sequence (P32300 whole entry): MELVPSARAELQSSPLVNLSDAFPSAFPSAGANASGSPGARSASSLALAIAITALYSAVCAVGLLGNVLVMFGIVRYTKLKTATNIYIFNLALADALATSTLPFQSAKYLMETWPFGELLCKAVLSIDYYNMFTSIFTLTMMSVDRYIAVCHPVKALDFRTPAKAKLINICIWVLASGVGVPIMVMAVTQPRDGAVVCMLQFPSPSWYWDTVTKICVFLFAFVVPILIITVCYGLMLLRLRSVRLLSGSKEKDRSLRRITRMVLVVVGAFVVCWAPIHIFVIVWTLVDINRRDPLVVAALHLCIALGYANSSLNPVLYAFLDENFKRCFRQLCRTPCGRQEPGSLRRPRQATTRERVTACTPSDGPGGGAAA
Mu-type opioid receptor (Mus musculus, UniProt P42866), sequence (P42866 whole entry): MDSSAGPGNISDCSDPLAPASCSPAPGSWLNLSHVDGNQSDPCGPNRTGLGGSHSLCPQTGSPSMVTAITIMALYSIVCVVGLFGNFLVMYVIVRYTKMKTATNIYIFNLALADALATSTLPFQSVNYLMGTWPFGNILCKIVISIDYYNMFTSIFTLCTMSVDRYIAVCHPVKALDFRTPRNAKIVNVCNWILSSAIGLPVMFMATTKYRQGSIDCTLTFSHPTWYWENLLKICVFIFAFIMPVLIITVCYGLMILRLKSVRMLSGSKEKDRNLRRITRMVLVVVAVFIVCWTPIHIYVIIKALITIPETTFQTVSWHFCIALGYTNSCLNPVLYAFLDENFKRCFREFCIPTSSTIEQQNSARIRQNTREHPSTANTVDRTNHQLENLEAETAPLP
T3 sequence (P41145 whole entry): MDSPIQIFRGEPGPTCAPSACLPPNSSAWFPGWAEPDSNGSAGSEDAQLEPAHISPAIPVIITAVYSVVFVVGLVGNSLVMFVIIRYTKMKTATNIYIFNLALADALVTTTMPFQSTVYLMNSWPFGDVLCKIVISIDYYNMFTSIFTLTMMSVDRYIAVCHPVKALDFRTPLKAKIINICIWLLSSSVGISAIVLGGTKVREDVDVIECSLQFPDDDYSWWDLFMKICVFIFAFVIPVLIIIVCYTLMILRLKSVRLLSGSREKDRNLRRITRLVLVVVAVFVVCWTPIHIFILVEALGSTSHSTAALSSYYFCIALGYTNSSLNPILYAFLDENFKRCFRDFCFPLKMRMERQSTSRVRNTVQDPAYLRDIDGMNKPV
T2 sequence (P35372 whole entry): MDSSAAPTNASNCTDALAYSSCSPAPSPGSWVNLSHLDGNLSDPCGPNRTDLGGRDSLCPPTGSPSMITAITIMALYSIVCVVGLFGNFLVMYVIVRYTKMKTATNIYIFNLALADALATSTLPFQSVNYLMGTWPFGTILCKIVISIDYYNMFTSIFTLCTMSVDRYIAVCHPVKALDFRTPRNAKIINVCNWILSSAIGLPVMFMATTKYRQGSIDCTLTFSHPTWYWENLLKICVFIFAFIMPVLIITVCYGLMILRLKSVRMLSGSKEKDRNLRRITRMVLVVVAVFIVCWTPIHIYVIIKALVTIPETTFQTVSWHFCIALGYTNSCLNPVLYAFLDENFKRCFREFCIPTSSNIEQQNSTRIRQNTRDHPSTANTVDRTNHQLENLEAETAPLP

With `C[C@]1(c2ccccc2O)O[C@H]2CO[C@H]3CO[C@@H]1N32`, the pKi in assay [1], in assay [2] and in assay [3] was less than 6.00 in each case.
Turning to `C[C@]1(c2ccc(O)cc2)O[C@H]2CO[C@@H]3N2[C@H]1O[C@]3(C)c1ccc(O)cc1`, the pKi in assay [1], in [2] and in assay [3] was less than 6.00 throughout.
In the case of `C[C@]1(c2ccccc2O)O[C@H]2CO[C@@H]3N2[C@H]1O[C@]3(C)c1ccccc1O`, the pKi in [1], in [2] and in [3] was less than 6.00 in each case.
On to `C[C@@]1(c2ccccc2O)O[C@H]2CO[C@@H]3N2[C@H]1O[C@]3(C)c1ccccc1O`, for which the pKi in [1], in [2] and in assay [3] was less than 6.00 throughout.
In the case of `C[C@@]1(c2ccccc2O)O[C@@H]2N3[C@H]1O[C@@](C)(c1ccccc1O)[C@@H]3O[C@@]2(C)c1ccccc1O`, the pKi in [1], in assay [2] and in [3] was less than 6.00 throughout.
Take `C[C@@]1(c2ccccc2O)O[C@H]2CO[C@@H]3N2[C@H]1O[C@@]3(C)c1ccccc1O`: the pKi in assay [1], in assay [2] and in assay [3] was less than 6.00 each time.
As to `C[C@@]1(c2ccc(O)cc2)O[C@@H]2N3[C@H]1O[C@](C)(c1ccc(O)cc1)[C@@H]3O[C@@]2(C)c1ccc(O)cc1`, the pKi in [1], in assay [2] and in assay [3] was less than 6.00 in each case.
As to `C[C@@]1(c2ccc(O)cc2)O[C@H]2CO[C@@H]3N2[C@H]1O[C@]3(C)c1ccc(O)cc1`, the pKi in [1], in [2] and in assay [3] was less than 6.00 each time.
Consider `C[C@]1(c2ccc(O)cc2)O[C@H]2CO[C@H]3CO[C@@H]1N32`, for which the pKi in assay [1], in assay [2] and in assay [3] was less than 6.00 throughout.
As for `C[C@@]1(c2ccc(O)cc2)O[C@H]2CO[C@@H]3N2[C@H]1O[C@@]3(C)c1ccc(O)cc1`, the pKi in assay [1], in assay [2] and in assay [3] was less than 6.00 throughout.
On to `C[C@@]1(c2ccc(O)cc2)O[C@@H]2N3[C@H](CO[C@H]31)O[C@]2(C)c1ccc(O)cc1`, for which the pKi in [1], in assay [2] and in assay [3] was less than 6.00 in each case.
Consider `C[C@@]1(c2ccccc2O)O[C@@H]2N3[C@H]1O[C@](C)(c1ccccc1O)[C@@H]3O[C@]2(C)c1ccccc1O`, for which the pKi in assay [1], in assay [2] and in [3] was less than 6.00 each time.
For the compound `C[C@@]1(c2ccc(O)cc2)O[C@@H]2N3[C@H]1O[C@@](C)(c1ccc(O)cc1)[C@@H]3O[C@@]2(C)c1ccc(O)cc1`, the negative-log Ki (pKi) in assay [1], in assay [2] and in assay [3] was less than 6.00 in each case.
Turning to `C[C@@]1(c2ccccc2O)O[C@H]2CO[C@H]3CO[C@@H]1N32`, the pKi in assay [1], in assay [2] and in assay [3] was less than 6.00 each time.
In the case of `C[C@@]1(c2ccccc2O)O[C@@H]2N3[C@H]1O[C@](C)(c1ccccc1O)[C@@H]3O[C@@]2(C)c1ccccc1O`, the pKi in assay [1], in assay [2] and in assay [3] was less than 6.00 in each case.
As to `C[C@@]1(c2ccc(O)cc2)O[C@H]2CO[C@H]3CO[C@@H]1N32`, the pKi in assay [1], in [2] and in [3] was less than 6.00 in each case.
Turning to `C[C@@]1(c2ccc(O)cc2)O[C@@H]2N3[C@H]1O[C@](C)(c1ccc(O)cc1)[C@@H]3O[C@]2(C)c1ccc(O)cc1`, the pKi in assay [1], in assay [2] and in assay [3] was less than 6.00 throughout.
`C[C@@]1(c2ccccc2O)O[C@@H]2N3[C@H](CO[C@H]31)O[C@]2(C)c1ccccc1O`: the figures for the negative logarithm of the EC50 (pEC50) in [4], in assay [7] and in [9] were 7.28, 7.24 and 8.00, respectively. For the same compound, the pKi is 7.69 in [1], 7.05 in [2] and 8.04 in assay [3]. The maximal effect (Emax) in assay [5] was determined as 73.6%; in [6] it was 89.2%; in assay [8], 131%.
